Values of other authors as cited in patent publication US11708377B2, “Analogues and derivatives of cephalotaxine and methods for making and using the compounds” (Oregon State University, priority 2019, dated 2023).

Columns and labels:
leukemia cells = conditions: background statement, no figure given
[1] = background statement; lacks the ester sidechain of HHT

COC(=O)C[C@](O)(CCCC(C)(C)O)C(=O)O[C@@H]1C(OC)=C[C@]23CCCN2CCc2cc4c(cc2[C@H]13)OCO4 [HHT, (−)-Homoharringtonine]
cytotoxicity against leukemia cells (leukemia cells): nanomolar cytotoxicity

COC1=C[C@]23CCCN2CCc2cc4c(cc2[C@@H]3[C@@H]1O)OCO4 [Cephalotaxine, (−)-Cephalotaxine]
biological activity [1]: biologically inactive
